Experimental findings from PMC10303384, “The Effect of Terbinafine and Its Ionic Salts on Certain Fungal Plant Pathogens” (Molecules, 2023) are described below.

Data set [1] deals with B. cinerea on cherry tomatoes. Description: In vivo antifungal bioassay on cherry tomatoes. The note with it: 20 mg/L; for Diameter of infection (cm) 4 days: 4 days after treatment; for Diameter of infection (cm) 7 days: 7 days after treatment. Also on record: species or system Botrytis cinerea.
Data set [2] deals with Pythium aphanidermatum (P. aphanidermatum). In words: In vitro fungicidal activity, mycelial (hyphae) growth inhibition on PDA. The format is cell-based. The note with it: mean ± SD of three replicates.
The test system of data set [3] is Alternaria solani (A. solani). The data set is described as above. The format is cell-based.
Data set [4] relates to Phomopsis capsici (P. capsica). The data set is described as above. It counts as cell-based. The conditions noted are these: mean ± SD of three replicates.
In data set [5] the test system is Rhizoctonia solani (R. solani). Description: microbe, parasite or virus in culture. The format is cell-based.
The test system of data set [6] is Botrytis cinerea (B. cinerea). In words: In vitro fungicidal activity, mycelial (hyphae) growth inhibition on PDA. The format is cell-based.
The nature of data set [7]: Solubility of saturated solutions by HPLC at 25 °C. The format is physicochemical. An excerpt:
The filtrate was then passed through a 0.22 μm nylon membrane filter and subjected to HPLC analysis. Based on Wang’s report about the chromatographic parameters, modifications to the mobile phase ratio were made. The replicability of the results was ensured by performing each measurement in triplicate.

In the next data set the test system is Valsa malicola (V. mali). Description: In vitro fungicidal activity, mycelial (hyphae) growth inhibition on PDA. The format is cell-based.
Data set [8] concerns Pyricularia oryzae (P. oryzae). In words: microbe, parasite or virus in culture. The format is cell-based.
A short description of data set [9]: Surface tension of saturated aqueous solutions, Du Noüy ring method. The note with it: 25 °C.
Description: This method involved adjusting the stage positioning of the solvent container such that a platinum ring could be immersed below the liquid interface or pulled through the meniscus. […] The maximum force was recorded as the surface tension of the solvent. To ensure accuracy, the platinum ring was thoroughly cleaned between each measurement through rinsing with double-distilled water and wiping it dry. The surface tension determination was performed in quadruplicate.
Data set [10] is described as follows: Solubility classification in representative solvents (Vogel protocol). The format is physicochemical. The note with it: 25 °C; for solubility: thermodynamic from solid. The protocol: This investigation details how to determine the solubility of terbinafine and its salts, guided by the experimental protocol in Vogel’s Textbook of Practical Organic Chemistry. Based on the Snyder polarity index values of the representative solvents, each solvent was tested for its ability to dissolve the target analytes. The solubility data was classified into three categories based on the observed extent of dissolution. […] The experimental procedures were performed at 25 °C and under ambient pressure.

For data set [11], the system named is Fusarium graminearum (F. graminearum). In words: microbe, parasite or virus in culture. It counts as cell-based.
[12] abbreviates: V. mali, read-out: EC50 (μmol/L).
[13] abbreviates: Fusarium graminearum, F. graminearum.
[14] abbreviates: 50 mg/L, mean ± SD of three replicates.
[15] abbreviates: test amount 0.1 g, Snyder polarity index 4.3.

Converted amounts (≈) assume the structure as drawn. “And” between values parts separate entries of the source, which are not always exact repeats. Equal entries are not always repeated. Where two headings read alike, the source gives them in different places. A value given as a limit tells only on which side of the number the result lay.

For `COC(=O)Nc1nc2ccccc2[nH]1` [Carbendazim, reference compound], in data set [1], the “Diameter of infection (cm) 4 days” value was found to be 0.85 cm and the “Diameter of infection (cm) 7 days” value amounted to 0.92 cm.

Take `CN(C/C=C/C#CC(C)(C)C)Cc1cccc2ccccc12` [Terbinafine]: the inhibition at 50 µg/mL in [2] (Pythium aphanidermatum, 50 mg/L, read-out: Inhibition Rate at 50 mg/L (%) P. a) came to 68.2 ± 1.87%; in data set [3] (Alternaria solani, 50 mg/L, mean ± SD of three replicates, read-out: Inhibition Rate at 50 mg/L (%) A. s), 100%; in data set [4] (Diaporthe capsici, 50 mg/L, read-out: Inhibition Rate at 50 mg/L (%) P. c), 48.75 ± 0.45%; in data set [5] (Rhizoctonia solani, 50 mg/L, read-out: Inhibition Rate at 50 mg/L (%) R. s), 84.21 ± 0.53%; in [6] (Botrytis cinerea, 50 mg/L, mean ± SD of three replicates, read-out: Inhibition Rate at 50 mg/L (%) B. c), 100%; with Valsa malicola (V. mali) (Cytospora schulzeri, 50 mg/L, mean ± SD of three replicates, read-out: Inhibition Rate at 50 mg/L (%) V. m), 100%. The inhibition at 50 µg/mL in data set [8] (Pyricularia oryzae, read-out: Inhibition Rate at 50 mg/L (%) P. o, 50 mg/L, mean ± SD of three replicates) was 99.64 ± 0.36%; in [11] (Fusarium graminearum, read-out: Inhibition Rate at 50 mg/L (%) F. g), 100%. In addition, the EC50 in [3] (Alternaria solani, A. solani, read-out: EC50 (mg/L)) was 0.07 mg/L; in [3] (Alternaria solani, A. solani, read-out: EC50 (μmol/L)), 0.25 µmol/L; in [5] (Rhizoctonia solani), 1.73 µg/mL and 5.94 µM; in data set [6] (Botrytis cinerea, B. cinerea, read-out: EC50 (mg/L)), 0.1 mg/L; in data set [6] (Botrytis cinerea, B. cinerea, read-out: EC50 (μmol/L)) it was 0.34 µmol/L; with Valsa malicola (V. mali) (V. mali, read-out: EC50 (mg/L)), 1.25 mg/L. The EC50 was 4.28 µmol/L in the data set with Valsa malicola (V. mali) (setting [12]); 0.28 µg/mL and 950 nM in data set [8] (Pyricularia oryzae, P. oryzae); 0.07 µg/mL and 250 nM in data set [11] (setting [13]). Further, in data set [7] (water, thermodynamic from solid, read-out: water solubility), the solubility at 15 min was 5.22 µM (≈ 1.52 µg/mL). Moreover, the “surface tension of the saturated aqueous solution” value in data set [9] is 59.92 mN·m^−1. Besides, in data set [1], the “Diameter of infection (cm) 4 days” value is recorded as 0.89 cm. Moreover, the “Diameter of infection (cm) 7 days” value in data set [1] was 1.07 cm. Moreover, the solubility in data set [10] (DMSO, organic solvent or mixture, test amount 0.1 g, Snyder polarity index 6.5, read-out: Solubility in DMSO) is over 100 mg/mL; in [10] (acetone, organic solvent or mixture, test amount 0.1 g, Snyder polarity index 5.1, read-out: Solubility in Acetone), over 100 mg/mL; in data set [10] (acetonitrile, organic solvent or mixture, test amount 0.1 g, Snyder polarity index 6.2, read-out: Solubility in Acetonitrile) it was over 100 mg/mL; in data set [10] (chloroform, organic solvent or mixture, test amount 0.1 g, Snyder polarity index 4.1, read-out: Solubility in Chloroform), over 100 mg/mL; in data set [10] (ethyl acetate, organic solvent or mixture, test amount 0.1 g, Snyder polarity index 4.3, read-out: Solubility in Ethyl acetate) it was over 100 mg/mL; in data set [10] (isopropanol, organic solvent or mixture, test amount 0.1 g, read-out: Solubility in Isopropanol), over 100 mg/mL. For the same compound, the solubility was over 100 mg/mL in data set [10] (methanol, organic solvent or mixture, test amount 0.1 g, Snyder polarity index 6.6, read-out: Solubility in Methanol); over 100 mg/mL in data set [10] (n-hexane, organic solvent or mixture, test amount 0.1 g, Snyder polarity index 0.0, read-out: Solubility in n-Hexane); over 100 mg/mL in [10] (toluene, organic solvent or mixture, test amount 0.1 g, Snyder polarity index 2.3, read-out: Solubility in Toluene); 100 mg/mL (≈ 343 mM) in data set [10] (various polar solvents, organic solvent or mixture, read-out: solubility in various polar solvents); under 33.3 mg/mL in data set [10] (water, test amount 0.1 g, Snyder polarity index 9.0, read-out: Solubility in Water).

Take `CN(C/C=C/C#CC(C)(C)C)Cc1cccc2ccccc12.O=C(O)C1C(C(=O)O)[C@@]2(Cl)C(Cl)=C(Cl)[C@]1(Cl)C2(Cl)Cl` [TIS 2, (E)-N,6,6-trimethyl-N-(naphthalen-1-ylmethyl)hept-2-en-4-yn-1-aminium (1S,4R)-3-carboxy-1,4,5,6,7,7-hexachlorobicyclo [2.2.1]hept-5-ene-2-carboxylate]: in [2], the “Inhibition Rate at 50 mg/L (%) P. a” value came to 69.65 ± 1.7%. The “Inhibition Rate at 50 mg/L (%) A. s” value in data set [3] (setting [14]) was found to be 98.8 ± 0%. Further, the “EC50 (mg/L)” value in [3] (A. solani) is given as 0.18 mg/L; in [5] it was 3.32 mg/L; in data set [6] (B. cinerea), 0.25 mg/L; in the data set with Valsa malicola (V. mali) (V. mali), 4.28 mg/L; in data set [8] (P. oryzae), 0.88 mg/L; in data set [11] (F. graminearum), 0.16 mg/L. Besides, the EC50 in data set [3] (A. solani, read-out: EC50 (μmol/L)) was 0.27 µmol/L; in data set [5] (read-out: EC50) it was 4.88 µM; in data set [6] (B. cinerea, read-out: EC50 (μmol/L)), 0.37 µmol/L; in the data set with Valsa malicola (V. mali) (setting [12]) it was 6.29 µmol/L; in data set [8] (P. oryzae, read-out: EC50), 1290 nM; in [11] (F. graminearum, read-out: EC50), 240 nM. For the same compound, the “Inhibition Rate at 50 mg/L (%) P. c” value in data set [4] is listed as 43.85 ± 1.61%. The “Inhibition Rate at 50 mg/L (%) R. s” value in data set [5] (50 mg/L) amounted to 80.75 ± 0.72%. The “Inhibition Rate at 50 mg/L (%) B. c” value in data set [6] (setting [14]) stood at 100 ± 0%. Further, in data set [7] (Table S1), the “Solubility, Acetone” value was found to be 8.23 µM. In [7] (Table S1), the “Solubility, Acetonitrile” value is 155 nM. In addition, the “Solubility, Chloroform” value in data set [7] (Table S1) was 1.39 µM. The “Solubility, Ethyl acetate” value in data set [7] (Table S1) came to 456 nM. For the same compound, in [7] (Table S1), the “Solubility, Isopropanol” value turned out to be 70.3 nM. Besides, the “Solubility, Methanol” value in data set [7] (Table S1) was 55.4 nM. The “Solubility, Toluene” value in data set [7] (Table S1) is 366 nM. In addition, the “Solubility, Water” value in data set [7] (Table S1) was determined as 5.62 µM. Further, the “Solubility, n-Hexane” value in data set [7] (Table S1) turned out to be 22.1 nM. In addition, the “Inhibition Rate at 50 mg/L (%) V. m” value with Valsa malicola (V. mali) (setting [14]) is given as 100 ± 0%. The “Inhibition Rate at 50 mg/L (%) P. o” value in data set [8] (setting [14]) worked out at 96.09 ± 0.36%. Also, the “surface tension of the saturated aqueous solution” value in data set [9] turned out to be 62.78 mN·m^−1. In addition, in data set [10] (test amount 0.1 g, Snyder polarity index 0.0), the “Solubility in n-Hexane” value was “− (“−” means insoluble in a 3 mL solvent, poor solubility)”. For the same compound, the “Solubility in Toluene” value in data set [10] (test amount 0.1 g, Snyder polarity index 2.3) is “− (“−” means insoluble in a 3 mL solvent, poor solubility)”. Moreover, in [10] (test amount 0.1 g, Snyder polarity index 4.1), the “Solubility in Chloroform” value was “− (“−” means insoluble in a 3 mL solvent, poor solubility)”. For the same compound, the “Solubility in Ethyl acetate” value in data set [10] (setting [15]) is “− (“−” means insoluble in a 3 mL solvent, poor solubility)”. Also, the “Solubility in Isopropanol” value in data set [10] (setting [15]) is “− (“−” means insoluble in a 3 mL solvent, poor solubility)”. Moreover, the “Solubility in Acetone” value in data set [10] (test amount 0.1 g, Snyder polarity index 5.1) was “− (“−” means insoluble in a 3 mL solvent, poor solubility)”. Also, the “Solubility in Acetonitrile” value in data set [10] (test amount 0.1 g, Snyder polarity index 6.2) is reported as “− (“−” means insoluble in a 3 mL solvent, poor solubility)”. Further, the “Solubility in DMSO” value in data set [10] (test amount 0.1 g, Snyder polarity index 6.5) was “+ (“+” means soluble in a 1 mL solvent, good solubility)”. Also, the “Solubility in Methanol” value in data set [10] (test amount 0.1 g, Snyder polarity index 6.6) is listed as “− (“−” means insoluble in a 3 mL solvent, poor solubility)”. Further, in [10] (test amount 0.1 g, Snyder polarity index 9.0), the “Solubility in Water” value is “− (“−” means insoluble in a 3 mL solvent, poor solubility)”. The “Inhibition Rate at 50 mg/L (%) F. g” value in [11] (setting [14]) amounted to 100 ± 0%.

With `COC(=O)N(OC)c1ccccc1COc1ccn(-c2ccc(Cl)cc2)n1` [Pyraclostrobin, reference compound], the EC50 is 0.23 µg/mL and 590 nM in data set [3] (Alternaria solani); 0.07 µg/mL and 190 nM in data set [5] (Rhizoctonia solani); 0.12 µg/mL and 310 nM in [6] (Botrytis cinerea); 0.79 µg/mL and 2.02 µM in the data set on Valsa malicola (V. mali); 0.6 µg/mL and 1.54 µM in data set [8] (Pyricularia oryzae, P. oryzae); 1.43 µg/mL and 3.68 µM in data set [11] (setting [13]). The “Diameter of infection (cm) 4 days” value in [1] is recorded as 0.71 cm. Also, the “Diameter of infection (cm) 7 days” value in [1] stood at 0.92 cm.

Usually solubility stands for the concentration that dissolves in the medium under given conditions.
